Several values for one entry are separate records, joined by “and”; a condition that tells them apart may be missing. Equal entries are not always repeated. Entries after “also recorded” stand apart in the source; their conditions may differ. Where two headings read alike, the source gives them in different places.
Key:
A2BAR [1] = target: T1, A2BAR (Homo sapiens, UniProt P29275); assay: GloSensor cAMP luminescence assay in HEK293G cells, endogenous A2BAR-mediated responses (NECA, adenosine, BAY 60-6583); assay type: cell-based; conditions: for antagonism of the response to BAY 60-6583 (in words): 1 μM BAY 60-6583; for mode of antagonism (in words): agonist concentration-response curves with increasing antagonist; for IC50 / pIC50 / inhibition of the response to 10 µM NECA (in words): 30 min pre-incubation; for -Log KB / Kb: apparent KB, modified Gaddum equation; for inhibition of the response to 10 µM NECA (in words): antagonist up to 10 µM
T1 construct: Gs-coupled A2BARs endogenously expressed in HEK293 cells; host or cells: HEK293G (HEK293 stably expressing the GloSensor 20F cAMP biosensor)
T1 sequence (P29275 1-332): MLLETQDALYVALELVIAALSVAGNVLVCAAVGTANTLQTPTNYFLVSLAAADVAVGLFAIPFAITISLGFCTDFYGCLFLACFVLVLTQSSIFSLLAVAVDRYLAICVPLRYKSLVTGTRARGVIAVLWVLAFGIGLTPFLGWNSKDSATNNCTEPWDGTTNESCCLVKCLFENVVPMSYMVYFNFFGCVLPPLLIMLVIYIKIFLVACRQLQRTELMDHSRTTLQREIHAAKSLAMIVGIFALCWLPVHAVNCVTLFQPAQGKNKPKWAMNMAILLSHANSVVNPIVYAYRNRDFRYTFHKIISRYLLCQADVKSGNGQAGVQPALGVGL
Experimental: (§1) The cAMP GloSensor™ (20F) biosensor [26] expressed in HEK293 (HEK293G) cells was obtained from Promega (Madison, WI). HEK293G cells were maintained in Dulbecco modified eagles medium (DMEM) supplemented with 2 mM L-glutamine, 10% FCS (fetal calf serum) and 200 μg/ml hygromycin B at 37 °C 5% CO2. […] For the GloSensor™ assay, cells were re-suspended in DMEM supplemented with 2 mM L-glutamine and 10% FCS and seeded at a density of 35000 cells/well on poly-l-lysine treated clear bottomed white walled 96 well plates. Cells were incubated at 37°C 5% CO2 overnight prior to assay.
(§2) The GloSensor™ assay was carried out as per manufacturer’s instructions (Promega, Madison, WI, USA). […] Agonist concentration response curves were simultaneously obtained (in the absence of antagonist).

A2BAR [2] = conditions: cited from earlier work
A2AAR [3] = target: T2, A2AAR (Homo sapiens, UniProt P29274); assay: GloSensor cAMP luminescence assay in HEK293G cells, endogenous A2AAR-mediated responses (CGS 21680); assay type: cell-based
T2 construct: We also provide evidence for a minor population of endogenous A2AAR in this cell line; host or cells: HEK293G (HEK293 stably expressing the GloSensor 20F cAMP biosensor)
T2 sequence (P29274 whole entry): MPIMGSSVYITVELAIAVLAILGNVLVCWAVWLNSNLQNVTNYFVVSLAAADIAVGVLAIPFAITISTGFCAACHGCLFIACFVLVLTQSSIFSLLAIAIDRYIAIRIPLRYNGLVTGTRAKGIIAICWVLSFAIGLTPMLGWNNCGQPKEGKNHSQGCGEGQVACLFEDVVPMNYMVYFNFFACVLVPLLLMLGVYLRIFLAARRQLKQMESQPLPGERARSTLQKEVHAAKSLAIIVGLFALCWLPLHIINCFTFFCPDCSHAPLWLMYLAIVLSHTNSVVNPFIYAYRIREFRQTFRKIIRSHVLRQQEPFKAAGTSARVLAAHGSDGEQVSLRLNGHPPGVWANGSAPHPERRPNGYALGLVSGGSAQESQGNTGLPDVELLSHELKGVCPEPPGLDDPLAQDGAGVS
Experimental: as §1, §2

adenylyl cyclase = assay: Forskolin-stimulated GloSensor cAMP luminescence in HEK293G cells; assay type: cell-based, human; conditions: forskolin concentration-response curves, PSB 603 up to 300 nM
Experimental: The cAMP GloSensor™ (20F) biosensor [26] expressed in HEK293 (HEK293G) cells was obtained from Promega (Madison, WI). HEK293G cells were maintained in Dulbecco modified eagles medium (DMEM) supplemented with 2 mM L-glutamine, 10% FCS (fetal calf serum) and 200 μg/ml hygromycin B at 37 °C 5% CO2. Once confluent, cells were dislodged from the flask surface by gentle shaking after incubation in 0.25% trypsin and cell pellet formed following 5 min 1000 g centrifugation. For the GloSensor™ assay, cells were re-suspended in DMEM supplemented with 2 mM L-glutamine and 10% FCS and seeded at a density of 35000 cells/well on poly-l-lysine treated clear bottomed white walled 96 well plates. Cells were incubated at 37°C 5% CO2 overnight prior to assay.
The GloSensor™ assay was carried out as per manufacturer’s instructions (Promega, Madison, WI, USA).

A2AAR [4] = conditions: cited from earlier work
[5] = antagonism of BAY 60-6583 (1 µM) response, HEK293G
[6] = antagonism of NECA (10 µM) response, HEK293G
[7] = antagonism of adenosine (10 µM) response, HEK293G

Molecule `N#Cc1c(N)nc(SCC(N)=O)c(C#N)c1-c1ccc(OCC2CC2)cc1` [BAY 60-6583, 2-[[6-Amino-3,5-dicyano-4-[4-(cyclopropylmethoxy)phenyl]-2-pyridinyl]thio]-acetamide] has an EC50 (A2BAR [1]; BAY 60-6583 pEC50, PSB 603 0 nM) of 407 nM, an EC50 (A2BAR [1]; BAY 60-6583 pEC50, PSB 603 30 nM) of 1580 nM and an EC50 (A2BAR [1]; BAY 60-6583 pEC50, PSB 603 100 nM) of 4570 nM. It also gave an EC50 (A2BAR [1]; BAY 60-6583 pEC50, PSB 603 300 nM) of over 30000 nM, an EC50 (A2BAR [1]; BAY 60-6583 pEC50, XAC 0 nM) of 380 nM and an EC50 (A2BAR [1]; BAY 60-6583 pEC50, XAC 100 nM) of 1320 nM. The EC50 (A2BAR [1]; BAY 60-6583 pEC50, XAC 300 nM) was 2240 nM, the EC50 (A2BAR [1]; BAY 60-6583 pEC50, XAC 1000 nM) was 9330 nM and the EC50 (A2BAR [1]; BAY 60-6583 pEC50, ZM 241385 0 nM) was 347 nM. For the same molecule, the EC50 (A2BAR [1]; BAY 60-6583 pEC50, ZM 241385 100 nM) was 1410 nM, the EC50 (A2BAR [1]; BAY 60-6583 pEC50, ZM 241385 300 nM) was 2140 nM and the EC50 (A2BAR [1]; BAY 60-6583 pEC50, ZM 241385 1000 nM) was 7240 nM. It also gave an Emax at 0.03 µM (A2BAR [1]; HEK293G, read-out: BAY 60-6583 Emax, PSB 603 30 nM, percentage of response to 10 µM BAY 60-6583) of 82.2 ± 1.64%, an Emax at 0.1 µM (A2BAR [1]; HEK293G, read-out: BAY 60-6583 Emax, PSB 603 100 nM, percentage of response to 10 µM BAY 60-6583) of 68.7 ± 6.78% and an Emax at 0.3 µM (A2BAR [1]; HEK293G, read-out: BAY 60-6583 Emax, PSB 603 300 nM, percentage of response to 10 µM BAY 60-6583) of 99.3 ± 26.6%. The Emax (A2BAR [1]; HEK293G, read-out: BAY 60-6583 Emax, XAC 0 nM, percentage of response to 10 μM BAY 60-6583) was 104 ± 5.27%, the Emax (A2BAR [1]; HEK293G, read-out: BAY 60-6583 Emax, XAC 100 nM, percentage of response to 10 μM BAY 60-6583) was 96.6 ± 4.8% and the Emax (A2BAR [1]; HEK293G, read-out: BAY 60-6583 Emax, XAC 300 nM, percentage of response to 10 μM BAY 60-6583) was 85.6 ± 5.04%. It also gave an Emax (A2BAR [1]; HEK293G, read-out: BAY 60-6583 Emax, XAC 1000 nM, percentage of response to 10 μM BAY 60-6583) of 55.9 ± 7.86%, an Emax at 0.1 µM (A2BAR [1]; HEK293G, read-out: BAY 60-6583 Emax, ZM 241385 100 nM, percentage of response to 10 μM BAY 60-6583) of 99 ± 7.14% and an Emax at 0.3 µM (A2BAR [1]; HEK293G, read-out: BAY 60-6583 Emax, ZM 241385 300 nM, percentage of response to 10 μM BAY 60-6583) of 80.8 ± 8.36%. For the same molecule, the Emax at 1 µM (A2BAR [1]; HEK293G, read-out: BAY 60-6583 Emax, ZM 241385 1000 nM, percentage of response to 10 μM BAY 60-6583) was 54.1 ± 8.41%, the “BAY 60-6583 Emax” value (A2BAR [1]; PSB 603 0 nM, percentage of response to 10 µM BAY 60-6583) was 104.40 ± 5.14% and the “BAY 60-6583 Emax” value (A2BAR [1]; ZM 241385 0 nM, percentage of response to 10 μM BAY 60-6583) was 100.80 ± 4.61%. The EC50 (A2BAR [1]; agonist pEC50, cAMP Glosensor luminescence, peak luminescence, HEK 293 cells, no antagonist (Fig. 4)) was 646 nM and the “agonist efficacy (in words)” value (A2BAR [1]; relative to adenosine and NECA, HEK293G) was “partial agonist”.

In the case of `CCCn1c(=O)[nH]c2nc(-c3ccc(S(=O)(=O)N4CCN(c5ccc(Cl)cc5)CC4)cc3)[nH]c2c1=O` [PSB 603], the Ki (A2BAR [2]) is listed as 0.5 nM, the “antagonism of the CGS 21680 response (in words)” value (A2AAR [3]; 1 μM CGS 21680, competition curves) is listed as “unable to inhibit; also recorded: not affected” and the “effect of pre-incubation on CGS 21680 concentration-response curves (in words)” value (A2AAR [3]; PSB 603 up to 300 nM) is listed as “did not affect; also recorded: completely unaffected”. The “effect of pre-incubation on the response to forskolin (in words)” value (adenylyl cyclase) was “did not affect; also recorded: completely unaffected”, the “antagonism of the response to BAY 60-6583 (in words)” value (A2BAR [1]) was “completely abolish the response” and the “maximal inhibition of the NECA response” value (A2BAR [1]; 10 µM NECA, % of the maximal response to NECA) was 81.7 ± 2.4% and 80%. For the same molecule, the “inhibition of the response to 10 µM adenosine” value (A2BAR [1]; 10 µM antagonist) was 80.5 ± 3.0% and 80%, the “mode of antagonism (in words)” value (A2BAR [1]) was “non-competitive antagonism” and the IC50 (A2BAR [1]; [5]) was 17.4 nM. The pIC50 (A2BAR [1]; [5]) was 7.86 ± 0.13, the IC50 (A2BAR [1]; [6]) was 49.8 nM and the pIC50 (A2BAR [1]; [6]) was 7.53 ± 0.22. The IC50 (A2BAR [1]; [7]) was 141 nM, the pIC50 (A2BAR [1]; [7]) was 7.56 ± 0.43 and the “-Log KB” value (A2BAR [1]; agonist BAY 60-6583 (1 µM)) was 8.55 ± 0.13. The Kb (A2BAR [1]; agonist BAY 60-6583 (1 µM)) was 3.6 nM, the “-Log KB” value (A2BAR [1]; agonist NECA (10 µM)) was 8.50 ± 0.22 and the Kb (A2BAR [1]; agonist NECA (10 µM)) was 5.3 nM. For the same molecule, the “-Log KB” value (A2BAR [1]; agonist adenosine (10 µM)) was 7.89 ± 0.43, the Kb (A2BAR [1]; agonist adenosine (10 µM)) was 66.3 nM and the “residual peak response to NECA” value (A2BAR [1]; limiting level of antagonism, kinetic profile, 10 μM NECA) was “circa 20%”. For the same molecule, the Ki (A2AAR [4]) was over 10 µM.

For `Nc1nc2c(cnn2CCc2ccccc2)c2nc(-c3ccco3)nn12` [SCH 58261, 2-(2-Furanyl)-7-(2-phenylethyl)-7H-pyrazolo [4,3-e][1,2,4] triazolo[1,5-c]pyrimidin-5-amine], the Ki (A2BAR [2]) is listed as 5010 nM, the “antagonism of the CGS 21680 response (in words)” value (A2AAR [3]) is listed as “complete concentration-dependent antagonism” and the “antagonism of the response to BAY 60-6583 (in words)” value (A2BAR [1]) is listed as “weak antagonist”. The “inhibition of the response to 10 µM NECA (in words)” value (A2BAR [1]) was “failed to inhibit” and the “inhibition of the adenosine response” value (A2BAR [1]; highest concentration tested, not statistically significant) was “approximately 35%”.

For `Nc1nc(NCCc2ccc(O)cc2)nc2nc(-c3ccco3)nn12` [ZM 241385, 4-(2-[7-Amino-2-(2-furyl)[1,2,4]triazolo[2,3-a][1,3,5]triazin-5-ylamino]ethyl)phenol], the “inhibition of the response to 10 µM NECA (in words)” value (A2BAR [1]) was “complete inhibition” and the “mode of antagonism (in words)” value (A2BAR [1]) was “competitive interaction”.
